Results as given in patent US5276049A, “Cyclic urea derivatives, pharmaceutical compositions containing these compounds and methods of using the same” (Dr. Karl Thomae GmbH, priority 1991, dated 1994).
Counter-ions that a name gives are not always drawn.

Columns and labels:
Human Thrombocytes = test: Fibrinogen Binding to Human Thrombocytes (I125-fibrinogen, gel-filtered platelets); settings: inhibition of I125-fibrinogen binding to gel-filtered human platelets, ADP, 20 minutes, ambient temperature; read-out: Fibrinogen Binding test IC50
Description: 1. Fibrinogen Binding to Human Thrombocytes Blood obtained by puncture of an antecubital vein was anticoagulated with trisodium citrate (final concentration: 13 mM) and centrifuged for 10 minutes at 170 *g. The supernatant platelet-rich plasma was placed on a Sepharose 2B column (Pharmacia) and eluted with a solution of 90 mM common salt, 14 mM trisodium citrate, 5 mM glucose and 50 mM tris(hydroxymethyl)aminomethane, adjusted to pH 7.4. The gel-filtered platelets (GFP) appearing in front of the plasma proteins were used for the binding tests. 50 μl of a 60 mM calcium chloride solution, 50 μl of a 0.6 mM adenosine diphosphate solution, 100 μl of substance solution or solvent and 50 μl of fibrinogen solution (containing 3 μg I125-fibrinogen) were added to 750 μl of GFP and incubated for 20 minutes at ambient temperature. The non-specific binding was measured in the presence of 3 mg/ml of cold fibrinogen. 900 μl of the incubate were carefully pipetted onto 250 μl of silicon oil (AP 38: AR 20, 1:2 v/v, Wacker Chemie) in Eppendorf vessels and centrifuged for 2 minutes at 10,000 *g. The aqueous supernatant and some of the oil were removed, the tip of the vessel with the platelet pellet was cut off and the quantity of bound fibrinogen was measured in a gamma-counter. The concentration of substance which inhibited fibrinogen binding by 50% was calculated from a series of concentrations and given as the IC50.

[1] = tested on: thrombocyte aggregation in platelet-rich plasma; test: Antithrombotic effect: collagen-induced thrombocyte aggregation in platelet-rich plasma (Born and Cross); type: cell-based; settings: human platelet-rich plasma, 10 minutes preincubation at 37° C., read-out: Inhibition of platelet aggregation EC50
Description: 2. Antithrombotic Effect Method: The thrombocyte aggregation was measured in platelet-rich plasma from healthy test subjects using the Born and Cross method (J. Physiol. 170: 397 (1964)). In order to inhibit coaggulation the blood was mixed with 3.14% sodium citrate in a ratio by volume of 1:10. Collagen-induced aggregation: The decrease in the optical density of the platelet suspension was measured photometrically and recorded after the addition of the aggregation-initiating substance. The speed of aggregation was concluded from the angle of inclination of the density curve. The point on the curve at which there was maximum transmittance was used to calculate the optical density. The quantity of collagen used was as little as possible but sufficient to give an irreversible reaction curve. Standard commercial collagen produced by Hormonchemie of Munich was used. Before the addition of collagen the plasma was incubated with the substance for 10 minutes at 37° C. From the measurements obtained, an EC50 was determined graphically, relating to a 50% change in the optical density in terms of inhibiting aggregation.

Row | SMILES | IC50 (Human Thrombocytes) [nM] | EC50 [1] [nM]
1 | N=C(N)c1ccc(-c2ccc(-n3c(=O)n(CCC(=O)O)c4cccnc43)cc2)cc1 [1(143), 3-(4'-amidino-4-biphenylyl)-1-(2-carboxy-ethyl)-3H-imidazo[4,5-b]pyridin-2-one] | > 10000 | 22000
2 | COC(=O)CCCCn1c(=O)n(-c2ccc(C(=N)N)cc2)c2ncccc21 [2(116), 3-(4-amidino-phenyl)-1-(4-methoxycarbonyl-butyl)-3H-imidazo[4,5-b]pyridin-2-one dihydrochloride] | 59000 | 49000
3 | N=C(N)c1ccc(N2CCN(C3CCC(CCC(=O)O)CC3)C2=O)cc1 (stereo not drawn) [1(46), 1-(4-amidino-phenyl)-3-[4-(2-carboxy-ethyl)cyclohexyl]-imidazolidin-2-one] | 11 | 40
4 | N=C(N)c1ccc(-c2ccc(C3CN(CCC(=O)O)C(=O)N3)cc2)cc1 (stereo not drawn) [4(15), 4-(4'-amidino-4-biphenylyl)-1-(2-carboxy-ethyl)-imidazolidin-2-one hydrochloride] | 42 | 300
5 | COC(=O)CCN1CCN(c2ccc(-c3ccc(C(=N)N)cc3)nn2)C1=O [2(27), 1-[6-(4-amidino-phenyl)-3-pyridazinyl]-3-(2-methoxycarbonyl-ethyl)-imidazolidin-2-one hydrochloride] | 2500 | 490
6 | COC(=O)CCN1CCN(C2CCN(c3ccc(C(=N)N)cc3)CC2)C1=O [4(11), 1-[1-(4-amidino-phenyl)-4-piperidinyl]-3-(2-methoxycarbonyl-ethyl)-imidazolidin-2-one hydrochloride] | 45000 | 2300
7 | N=C(N)c1ccc(-c2ccc(N3CCN(CCC(=O)O)C3=O)nn2)cc1 [1(28), 1-[6-(4-amidino-phenyl)-3-pyridazinyl]-3-(2-carboxy-ethyl)-imidazolidin-2-one] | 52 | 390
8 | COC(=O)CCc1ccc(-n2ccn(-c3ccc(C(=N)N)cc3)c2=O)cc1 [2(58), 1-(4-amidino-phenyl)-3-[4-(2-methoxycarbonyl-ethyl)-phenyl]-3H-imidazol-2-one hydrochloride] | 4700 | 140
9 | COC(=O)CCn1cc(-c2ccc(-c3ccc(C(=N)N)cc3)cc2)[nH]c1=O [2(104), 4-(4'-amidino-4-biphenylyl)-1-(2-methoxycarbonyl-ethyl)-3H-imidazol-2-one hydrochloride] | 7100 | 2100
10 | N=C(N)c1ccc(-c2cn(-c3ccc(CCC(=O)O)cc3)c(=O)n2-c2ccccc2)cc1 [1(94), 4-(4-amidino-phenyl)-1-[4-(2-carboxy-ethyl)-phenyl]-3-phenyl-3H-imidazol-2-one hydrochloride] | 310 | 400
11 | N=C(N)c1ccc(-n2ccn(-c3ccc(C=CC(=O)O)cc3)c2=O)cc1 [1(147), 1-(4-amidino-phenyl)-3-[4-(2-carboxy-ethenyl)-phenyl]-3H-imidazol-2-one] | 27 | 160
12 | COC(=O)C(Cc1ccc(-n2ccn(-c3ccc(C(=N)N)cc3)c2=O)cc1)N(Cc1ccccc1)Cc1ccccc1 (stereo not drawn) [2(127), 1-(4-amidino-phenyl)-3-[4-(2-dibenzylamino-2-methoxycarbonyl-ethyl)-phenyl]-3H-imidazol-2-one hydrochloride] | 5600 | 18000
13 | N=C(N)c1ccc(N2CCN(CCCCC(=O)O)C2=O)cc1 [1(77), -(4-amidino-phenyl)-3-(4-carboxy-butyl)-imidazolidin-2-one] | 4900 | 8000
14 | CC(=O)N(CCN1CCN(c2ccc(C(=N)N)cc2)C1=O)CC(=O)O [Example 30, 1-[2-(N-Acetyl-N-carboxymethyl-amino)-ethyl]-3-(4-amidino-phenyl)-imidazolidin-2-one] | 4400 | 8300
15 | COC(=O)CCc1ccc(-n2c(C)cn(-c3ccc(C(=N)N)cc3)c2=O)cc1 [2(115), 1-(4-amidino-phenyl)-3-[4-(2-methoxycarbonyl-ethyl)-phenyl]-4-methyl-3H-imidazol-2-one hydrochloride] | 530 | 80
16 | N=C(N)c1ccc(-c2ccc(-c3cn(CCC(=O)O)c(=O)n3-c3ccccc3)cc2)cc1 [1(119), 4-(4'-amidino-4-biphenylyl)-1-(2-Carboxy-ethyl)-3-phenyl-3H-imidazol-2-onehydrochloride] | 210 | 730
17 | Cc1nn(-c2ccc(C(=N)N)cc2)c(=O)n1-c1ccc(CCC(=O)OC(C)C)cc1 [11(11), 2-(4-amidino-phenyl)-4-[4-(2-isopropyloxycarbonyl-ethyl)-phenyl]-5-methyl-4H-1,2,4-triazol-3-one hydrochloride] | – | 210
18 | COC(=O)CCc1ccc(-n2ncn(-c3ccc(C(=N)N)cc3)c2=O)cc1 [2(124), 4-(amidino-phenyl)-2-[4-(2-methoxycarbonyl-ethyl)-phenyl]-4H-1,2,4-triazol-3-one hydrochloride] | – | 130
19 | COC(=O)CCc1ccc(-n2cnn(-c3ccc(C(N)=NC(=O)OC)cc3)c2=O)cc1 [5(11), 2-(4-methoxycarbonylamidino-phenyl)-3-[4-(2-methoxycarbonyl-ethyl)-phenyl]-4H-1,2,4-triazol-3-one] | 5700 | –
20 | COC(=O)CCC1CCC(N2CCN(c3ccc(C(=N)NC(=O)OC)cc3)C2=O)CC1 (stereo not drawn) [5(12), 1-(4-methoxycarbonylamidino-phenyl)-3-[4-(2-methoxycarbonyl-ethyl)-cyclohexyl]-imidazolidin-2-one] | 3700 | –

More lines, now with the values ahead:

Row | IC50 (Human Thrombocytes) [nM] | EC50 [1] [nM] | SMILES
21 | 150 | 380 | CC(N)c1ccc(N2CCN(c3ccc(CCC(=O)O)cc3)C2=O)cc1 (stereo not drawn) [1(153), 1-[4-(1-amino-ethyl)-phenyl]-3-[4-(2-carboxy-ethyl)-phenyl]-imidazolidin-2-one]
22 | 470 | 1300 | NCc1ccc(N2CCN(c3ccc(CC(N)C(=O)O)cc3)C2=O)cc1 (stereo not drawn) [1(149), 1-[4-(2-amino-2-carboxy-ethyl)-phenyl]-3-(4-aminomethyl-phenyl)-imidazolidin-2-one]
23 | 45 | 1500 | N=C(N)c1ccc(-c2ccc(N3CCN(CCC(=O)O)C3=O)cc2)cc1 [1(1), 1-(4'-amidino-4-biphenylyl)-3-(2-carboxy-ethyl)-imidazolidin-2-one]
24 | 32000 | > 100000 | COC(=O)CC(C)(C)c1ccc(N2CCN(c3ccc(C(=N)N)cc3)C2=O)cc1 [2(47), 1-(4-amidino-phenyl)-3-[4-(3-methoxycarbonyl-2-methyl-2-propyl)-phenyl]-imidazolidin-2-one hydrochloride]
25 | – | 240 | COC(=O)CS(=O)(=O)c1ccc(N2CCN(c3ccc(C(=N)N)cc3)C2=O)cc1 [Example 18, 1-(4-Amidino-phenyl)-3-(methoxycarbonylmethylsulphonyl-phenyl)-imidazolidin-2-one]
26 | 420 | 120 | COC(=O)C[S+]([O-])c1ccc(N2CCN(c3ccc(C(=N)N)cc3)C2=O)cc1 (stereo not drawn) [18(5), 1-(4-amidino-phenyl)-3-(4-methoxycarbonylmethyl-sulphinyl-phenyl)-imidazolidin-2-one]
27 | – | 280 | Cc1nn(-c2ccc(CCC(=O)O)cc2)c(=O)n1-c1ccc(C(=N)N)cc1 [1(137), 4-(4-amidino-phenyl)-2-[4-(2-carboxy-ethyl)-phenyl]-5-methyl-4H-1,2,4-triazol-3-one]
28 | 28 | 310 | NC1CCc2cc(N3CCN(c4ccc(CCC(=O)O)cc4)C3=O)ccc21 (stereo not drawn) [1(154), 1-(1-amino-5-indanyl)-3-[4-(2-carboxy-ethyl)-phenyl] -imidazolidin-2-one]
29 | – | 600 | Cc1cn(-c2ccc(CCC(=O)O)cc2)c(=O)n1-c1ccc(C(=N)N)cc1 [1(144), 3-(4-amidino-phenyl)-1-[4-(2-carboxy-ethyl)-phenyl]-4-methyl-3H-imidazol-2-one]
30 | – | 280 | COC(=O)CSc1ccc(N2CCN(c3ccc(C(=N)N)cc3)C2=O)cc1 [2(45), 1-(4-amidino-phenyl)-3-(4-methoxycarbonyl-methylthio-phenyl)-imidazolidin-2-one]
31 | – | 630 | COC(=O)CCc1ccc(-n2nc(C)n(-c3ccc(C(=N)N)cc3)c2=O)cc1 [2(117), 4-(4-amidino-phenyl)-2-[4-(2-methoxycarbonyl-ethyl)-phenyl]-5-methyl-4H-1,2,4-triazol-3-one hydrochloride]
32 | – | 1200 | COC(=O)CCc1ccc(-n2cc(C)n(-c3ccc(C(=N)N)cc3)c2=O)cc1 [2(122), 3-(4-amidino-phenyl)-1-[4-(2-methoxycarbonyl-ethyl)-phenyl]-4-methyl-3H-imidazol-2-one hydrochloride-hydrate]
